The values that follow come from patent US20120022143A1, “RNA Interference Mediated Inhibition of the Thymic Stromal Lymphopoietin (TSLP) Gene Expression Using Short Interfering Nucliec Acid (siNA)” (Merck Sharp & Dohme Corp, priority 2009, published 2012).

The subject of one data set is TSLP mRNA. Nature of the data set: Initial screening: TSLP mRNA knock-down by RT-PCR (Taqman) after RNAiMax transfection of NHLF cells. The data set is classed as cell-based. To be noted: 10 nM siNA, human NHLF cells, 24 hrs post-transfection, relative to non-targeting control, normalized to GAPDH; mean ± s.d. from 2 experiments. The procedure:
(§1) All cells were obtained from ATCC (Manassas, Va.) unless otherwise indicated. Cells were grown and transfected under standard conditions, which are detailed below for each cell line.
NHLF (human; Lonza cat# CC-2512): Cells were cultured at 37° C. in the presence of 5% CO2 and grown Fibroblast Basal Medium (Lonza cat# CC-3β2) supplemented growth factors (provided with the kit) and 100 μg/mL of streptomycin and 100 U/mL penicillin.
(§2) All transfections were performed using RNAiMax (Invitrogen Cat# 13778-150) as per the manufacturer's instructions.
(§3) Both human and murine cell lines were transfected in the similar fashion. Cells were plated in all wells of a tissue-culture treated, 96-well plate at a final count of 5,000 cells/well in […], of appropriate culture media. Cells were cultured for 24 hours after plating at 37° C. in the presence of 5% CO2.
(§4) After 24 hours, complexes containing siNA and RNAiMax were created as follows: A solution of RNAiMax diluted 33-fold in OPTI-MEM was prepared. In parallel, solutions of the siNAs for testing were prepared to a final concentration of 120 nM in OPTI-MEM. After incubation of RNAiMax/OPTI-MEM solution at room temperature for 5 min, an equal volume of the siNA solution and the RNAiMax solution were added together for each of the siNAs.
(§5) This solution was incubated at room temperature for 20 minutes. After incubation, 20 uL of the solution was added to each of the relevant wells.
(§6) The final concentration of siNA in each well was 10 nM and the final volume of RNAiMax in each well was 0.3 ul.
(§7) The time of incubation with the RNAiMax-siNA complexes was 24 hours, unless otherwise indicated. There was no change in media between the transfection and harvesting of the cells unless otherwise indicated.
(§8) RNA was extracted from a 96-well plate using the TaqMan® Gene Expression Cells-to-CT™ Kit (Cat# 4399002) with a modified protocol. Briefly, a 60 uL (1 plate) or 110 uL (2 plates) of the Lysis Solution with DNase I was dispensed into each well of the Lysis Buffer Plate (twin.tec full skirt plate). The lysis buffer and stop plates were stored at 4° C. until the cells were washed.
(§9) The plate was spun at 1100 rpm for 5 minutes. The culture medium was aspirated and discarded from the wells of the culture plate. The lysis was performed automatically using a BioMek FX instrument and method. After the Biomek method was completed, the lysis plate was incubated for 2 min. at room temperature. The lysis plate can be stored for 2 hours at 4° C., or at −20° C. or −80° C. for two months.
(§10) Each well of the reverse transcription plate required 10 uL of 2× reverse transcriptase Buffer, luL of 20× reverse transcription enzyme and 2 uL of nuclease-free water. The reverse transcription master mix was prepared by mixing 2× reverse transcription buffer, 20× reverse transcription enzyme mix, and nuclease-free water. 13 uL of the reverse transcription master mix was dispensed into each well of the reverse transcription plate (semi-skirted). A separate reverse transcription plate was prepared for each cell plate. The plate was loaded onto a Biomek NX or Biomek FX Dual-96 and the Biomek method was run. The program is programmed to automatically added 7 uL of lysate from the cell lysis procedure described above into each well of the reverse transcription plate. The plate is sealed and spun on a centrifuge (1000 rpm for 30 seconds) to settle the contents to the bottom of the reverse transcription plate. The plate is placed in a thermocycler at 37° C. for 60 min, 95° C. for 5 min, and 4° C. until the plate is removed from the thermocycler. Upon removal, if not used immediately, the plate was frozen at −20° C.
A series of probes and primers were used to detect the various mRNA transcripts of the genes of TSLP, IL-8 and GAPDH in human cell lines. All the Taqman probes and primers for the experiments here-in described were supplied as pre-validated sets by Applied Biosystems, Inc. (see Table 2). […]

For a further data set, the system named is mTSLP mRNA. As to the kind of experiment: Initial screening: mouse TSLP mRNA knock-down by RT-PCR (Taqman) after RNAiMax transfection of NIH 3T3 cells. The data set is classed as cell-based. Particulars: 10 nM siNA, 24 hrs post-transfection, mean ± s.d., summary from 2 screens. The procedure: as §1
NIH 3T3 (murine; ATCC cat#CRL-1658): Cells were cultured at 37° C. in the presence of 5% CO2 and grown in Dulbecco's modified Eagle's medium (DMEM) with 4 mM L-glutamine adjusted to contain 1.5 g/L sodium bicarbonate and 4.5 g/L glucose and supplemented with fetal bovine serum at a final concentration of 10% and 100 μg/mL of streptomycin and 100 U/mL penicillin.
as §2, §3, §4, §5, §6, §7, §8, §9, §10
A series of probes and primers were used to detect the various mRNA transcripts of the genes of TSLP, IL-8 and GAPDH in human cell lines. […]

[invAb] = inverted abasic unit; d = 2'-deoxy (DNA); m = 2'-O-methyl; r = 2'-OH (RNA); f = 2'-fluoro

“25458-DC: siNA duplex: sense B GuAGAAAAAAAAAuuAAAA TTB (SEQ ID NO: 99), antisense UUUuAAuuuuuuuuucuAcUU (SEQ ID NO: 100) (sense GUAGAAAAAAAAAUUAAAATT; antisense UUUUAAUUUUUUUUUCUACUU; sense: sugars from the 5' end d1 f1 d11 f2 d6, [invAb] at 5' end, 3' end, backbone not given here; antisense: sugars from the 5' end rrrfmmfffffffffffmfmm, backbone not given here)”: the “% KD TSLP” value in the data set with TSLP mRNA is reported as 45 ± 9.9%. Besides, in the data set with mTSLP mRNA, the “% KD mTSLP NIH3T3” value is reported as 21.6 ± 0.5%.
As for “25459-DC: siNA duplex: sense B uGcccAGGcuAcccuGAAA TTB (SEQ ID NO: 101), antisense UUUcAGGGuAGccuGGGcAUU (SEQ ID NO: 102) (sense UGCCCAGGCUACCCUGAAATT; antisense UUUCAGGGUAGCCUGGGCAUU; sense: DNA at AGT, 2'-fluoro at CU, [invAb] at 5' end, 3' end, backbone not given here; antisense: sugars from the 5' end rrrfmmmmfmmfffmmmfmmm, backbone not given here)”, the “% KD TSLP” value in the data set on TSLP mRNA is listed as −6 ± 27^ %. Further, the “% KD mTSLP NIH3T3” value in the data set on mTSLP mRNA was found to be 15.7 ± 1.6%.
Consider “25460-DC: siNA duplex: sense B GucuGAAucAAAccucACA TTB (SEQ ID NO: 103), antisense UGUGAGGuuuGAuucAGAcUU (SEQ ID NO: 104) (sense GUCUGAAUCAAACCUCACATT; antisense UGUGAGGUUUGAUUCAGACUU; sense: sugars from the 5' end dfffdddffdddffffddddd, [invAb] at 5' end, 3' end, backbone not given here; antisense: sugars from the 5' end rrrmmmmfffmmfffmmmfmm, backbone not given here)”, for which, in the data set with TSLP mRNA, the “% KD TSLP” value is on record as −7 ± 10.7%. The “% KD mTSLP NIH3T3” value with mTSLP mRNA turned out to be 40.8 ± 1.4%.
Taken in the same sequence, the figures for “25461-DC: siNA duplex: sense B GGGcuAAcuuAcAAcuuuu TTB (SEQ ID NO: 105), antisense AAAAGuuGuAAGuuAGcccUU (SEQ ID NO: 106) (sense GGGCUAACUUACAACUUUUTT; antisense AAAAGUUGUAAGUUAGCCCUU; sense: DNA at AGT, 2'-fluoro at CU, [invAb] at 5' end, 3' end, backbone not given here; antisense: sugars from the 5' end rrrmmffmfmmmffmmfffmm, backbone not given here)” were −48 ± 56.1% and −17.2 ± 3.6%.
As to “25462-DC: siNA duplex: sense B GGGcuAAGuucGAGcAAAu TTB (SEQ ID NO: 107), antisense AUUuGcucGAAcuuAGcccUU (SEQ ID NO: 108) (sense GGGCUAAGUUCGAGCAAAUTT; antisense AUUUGCUCGAACUUAGCCCUU; sense: DNA at AGT, 2'-fluoro at CU, [invAb] at 5' end, 3' end, backbone not given here; antisense: sugars from the 5' end rrrfmfffmmmfffmmfffmm, backbone not given here)”, in the data set on TSLP mRNA, the “% KD TSLP” value is 23 ± 16.4%. Also, the “% KD mTSLP NIH3T3” value in the data set with mTSLP mRNA is listed as −9.5 ± 28.7%.
Taken in the same sequence, the figures for “25463-DC: siNA duplex: sense B cGAGuAuuAuAcucucAAu TTB (SEQ ID NO: 109), antisense AUUGAGAGuAuAAuAcucGUU (SEQ ID NO: 110) (sense CGAGUAUUAUACUCUCAAUTT; antisense AUUGAGAGUAUAAUACUCGUU; sense: DNA at AGT, 2'-fluoro at CU, [invAb] at 5' end, 3' end, backbone not given here; antisense: sugars from the 5' end rrrmmmmmfmfmmfmfffmmm, backbone not given here)” were 19 ± 33.3% and 41.5 ± 1.4%.
